Source: patent US12122800B2, “Inhibitors of MEK kinase” (Kinnate Biopharma Inc., priority 2022, dated 2024)

System: A375 pERK
Assay: Cellular assay monitoring phosphorylation of ERK (HTRF phospho-ERK Thr202/Tyr204) in A-375 cells
Type: cell-based
Settings: Homo sapiens, melanoma derived cell line A-375 (BRAF V600 activating mutation), 1 hour incubation with compound
Method: To determine the effect of the MEK inhibitor compounds disclosed herein on cellular MAPK signaling downstream of MEK, an assay monitoring phosphorylation of ERK was used. Melanoma derived cell line A-375, which harbors a BRAF V600 activating mutation was cultured and maintained as specified by the supplier (ATCC: Cat #CRL-1619; American Type Culture Collection; Manassas, VA 20110). Cells were seeded at 8000 cells/well in 24 μL growth media in a 384-well plate and allowed to adhere at 37° C. with 5% CO2 overnight. The following day, compounds were serially diluted into 10-point, 3-fold dilution curves in 384 well plates. Compound was transferred to cell plates using Echo550 such that the final concentration range was 0.508 nM to […] in […] with 0.1% DMSO being used as negative control. Cells were incubated with compounds for 1 hour at 37° C. with […]. Cells were lysed by addition of 8 μL 4× lysis buffer provided with HTRF kit (Advanced phospho-ERK (Thr202/Tyr204) cellular kit; Cisbio; Cat #64AERPEH) plus 1× protease/phosphatase inhibitor cocktail. 20 μL lysate was transferred to HTRF plate followed by 2.5 μL each of anti-ERK1/2-Europium/Terbium Cryptate and anti-phospho-ERK1/2 antibody solutions per manufacturer's instructions and incubated. Specific signal was measured at […] on a Perkin Elmer Envision 2105 and the ratios used to calculate IC50 values within the Dotmatics Knowledge Solutions Studies curve fitting environment (Dotmatics, Bishops Stortford, UK, CM23) and are presented in Table 8.

| IC50 [nM] | SMILES |
| --- | --- |
| 10 to 100 | CC[P@@](C)(=O)c1ccncc1Nc1ccc(I)cc1F (single isomer, unassigned) [Example 8] |
| 10 to 100 | CC[P@](C)(=O)c1ccncc1Nc1ccc(I)cc1F (single isomer, unassigned) [Example 9] |
| 100 to 1000 | CC[P@@](C)(=O)c1ccncc1Nc1ccc(Br)cc1F (single isomer, unassigned) [Example 16] |
| 100 to 1000 | CC[P@](C)(=O)c1ccncc1Nc1ccc(Br)cc1F (single isomer, unassigned) [Example 17] |
| 100 to 1000 | C#Cc1ccc(Nc2cnccc2[P@](C)(=O)CC)c(F)c1 (single isomer, unassigned) [Example 19] |
| 100 to 1000 | C#Cc1ccc(Nc2cnccc2[P@@](C)(=O)CC)c(F)c1 (single isomer, unassigned) [Example 20] |
| > 10 | CP(C)(=O)c1ccncc1Nc1ccc(I)cc1F [Example 1, 4-(Dimethylphosphoryl)-N-(2-fluoro-4-iodophenyl)pyridin-3-amine] |
| ≤ 1000 | CP(C)(=O)c1ccc(F)cc1Nc1ccc(I)cc1F [Example 2, 2-(Dimethylphosphoryl)-5-fluoro-N-(2-fluoro-4-iodophenyl)aniline] |
| 10 to 100 | CP(C)(=O)c1ccncc1Nc1ccc(I)c(F)c1F [Example 3, N-(2,3-Difluoro-4-iodophenyl)-4-(dimethylphosphoryl)pyridin-3-amine] |
| ≤ 1000 | CP(C)(=O)c1ccc(F)c(F)c1Nc1ccc(I)cc1F [Example 4, 6-(Dimethylphosphoryl)-2,3-difluoro-N-(2-fluoro-4-iodophenyl)aniline] |
| 10 to 100 | O=P1(c2ccncc2Nc2ccc(I)cc2F)CCCC1 [Example 5, 1-(3-((2-Fluoro-4-iodophenyl)amino)pyridin-4-yl)phospholane 1-oxide] |
| 10 to 100 | CCP(=O)(CC)c1ccncc1Nc1ccc(I)cc1F [Example 6, 4-(Diethylphosphoryl)-N-(2-fluoro-4-iodophenyl)pyridin-3-amine] |
| 10 to 100 | CCP(C)(=O)c1ccncc1Nc1ccc(I)cc1F (centres unmarked) [Example 7, 4-[Ethyl(methyl)phosphoryl]-N-(2-fluoro-4-iodophenyl)pyridin-3-amine] |
| 100 to 1000 | CP(C)(=O)c1ccncc1Nc1ccc(Br)cc1F [Example 10, N-(4-Bromo-2-fluorophenyl)-4-(dimethylphosphoryl)pyridin-3-amine] |
| 100 to 1000 | CCP(=O)(CC)c1ccncc1Nc1ccc(Br)cc1F [Example 11, N-(4-bromo-2-fluorophenyl)-4-(diethylphosphoryl)pyridin-3-amine] |
| 100 to 1000 | O=P1(c2ccncc2Nc2ccc(Br)cc2F)CCCC1 [Example 12, 1-(3-((4-Bromo-2-fluorophenyl)amino)pyridin-4-yl)phospholane 1-oxide] |

| IC50 [nM] | SMILES |
| --- | --- |
| > 10 | CP(C)(=O)c1c(Cl)cncc1Nc1ccc(I)cc1F [Example 13, 5-Chloro-4-(dimethylphosphoryl)-N-(2-fluoro-4-iodophenyl)pyridin-3-amine] |
| 10 to 100 | C#Cc1ccc(Nc2cnccc2P(C)(C)=O)c(F)c1 [Example 14, (3-((4-Ethynyl-2-fluorophenyl)amino)pyridin-4-yl)dimethylphosphine oxide] |
| 100 to 1000 | C#Cc1ccc(Nc2cnccc2P2(=O)CCCC2)c(F)c1 [Example 15, 1-(3-((4-Ethynyl-2-fluorophenyl)amino)pyridin-4-yl)phospholane 1-oxide] |
| 100 to 1000 | C#Cc1ccc(Nc2cnccc2P(=O)(CC)CC)c(F)c1 [Example 18, 4-(Diethylphosphoryl)-N-(4-ethynyl-2-fluorophenyl)pyridin-3-amine] |
| 100 to 1000 | CP(C)(=O)c1cc(F)ncc1Nc1ccc(I)cc1F [Example 21, (2-Fluoro-5-((2-fluoro-4-iodophenyl)amino)pyridin-4-yl)dimethylphosphine oxide] |
| 10 to 100 | CP(C)(=O)c1ccncc1Nc1ccc(I)cc1 [Example 22, 4-(Dimethylphosphoryl)-N-(4-iodophenyl)pyridin-3-amine] |
| 10 to 100 | CP(C)(=O)c1ccncc1Nc1ccc(C2CC2)cc1F [Example 23, N-(4-Cyclopropyl-2-fluorophenyl)-4-(dimethylphosphoryl)pyridin-3-amine] |
| > 10 | CP(C)(=O)c1c(F)cncc1Nc1ccc(I)cc1F [Example 24, 4-(Dimethylphosphoryl)-5-fluoro-N-(2-fluoro-4-iodophenyl)pyridin-3-amine] |
| 10 to 100 | CP(C)(=O)c1ccnc(F)c1Nc1ccc(I)cc1F [Example 25, (2-Fluoro-3-((2-fluoro-4-iodophenyl)amino)pyridin-4-yl)dimethylphosphine oxide] |
| > 10 | CP(C)(=O)c1c(F)cncc1Nc1ccc(Br)cc1Cl [Example 26, N-(4-bromo-2-chlorophenyl)-4-(dimethylphosphoryl)-5-fluoropyridin-3-amine] |
| 100 to 1000 | CP(C)(=O)c1ccncc1Nc1ccc(Br)cc1Cl [Example 27, N-(4-bromo-2-chlorophenyl)-4-(dimethylphosphoryl) pyridin-3-amine] |
| 100 to 1000 | CP(C)(=O)c1c(Cl)cncc1Nc1ccc(Br)cc1Cl [Example 28, N-(4-Bromo-2-chlorophenyl)-5-chloro-4-(dimethylphosphoryl)pyridin-3-amine] |
| 10 to 100 | CP(C)(=O)c1c(Cl)cncc1Nc1ccc(Br)cc1F [Example 29, (3-((4-Bromo-2-fluorophenyl)amino)-5-chloropyridin-4-yl)dimethylphosphine oxide] |
| > 10 | Cc1cncc(Nc2ccc(I)cc2F)c1P(C)(C)=O [Example 30, 4-(Dimethylphosphoryl)-N-(2-fluoro-4-iodophenyl)-5-methylpyridin-3-amine] |
| 10 to 100 | C#Cc1ccc(Nc2cncc(F)c2P(C)(C)=O)c(F)c1 [Example 31, 4-(Dimethylphosphoryl)-N-(4-ethynyl-2-fluorophenyl)-5-fluoropyridin-3-amine] |
| 10 to 100 | CP(C)(=O)c1c(Cl)cncc1Nc1ccc(C2CC2)cc1F [Example 32, (3-Chloro-5-((4-cyclopropyl-2-fluorophenyl)amino)pyridin-4-yl)dimethylphosphine oxide] |
